Laboratory results taken from ChEMBL document CHEMBL5291721, “A preclinical secondary pharmacology resource illuminates target-adverse drug reaction associations of marketed drugs” (Nat Commun, 2023).

Key:
[1] = target: Hydroxycarboxylic acid receptor 2 (Homo sapiens, UniProt Q8TDS4)
[2] = target: T1, Muscarinic acetylcholine receptor M4 (Homo sapiens, UniProt P08173)
T1 sequence (P08173 whole entry): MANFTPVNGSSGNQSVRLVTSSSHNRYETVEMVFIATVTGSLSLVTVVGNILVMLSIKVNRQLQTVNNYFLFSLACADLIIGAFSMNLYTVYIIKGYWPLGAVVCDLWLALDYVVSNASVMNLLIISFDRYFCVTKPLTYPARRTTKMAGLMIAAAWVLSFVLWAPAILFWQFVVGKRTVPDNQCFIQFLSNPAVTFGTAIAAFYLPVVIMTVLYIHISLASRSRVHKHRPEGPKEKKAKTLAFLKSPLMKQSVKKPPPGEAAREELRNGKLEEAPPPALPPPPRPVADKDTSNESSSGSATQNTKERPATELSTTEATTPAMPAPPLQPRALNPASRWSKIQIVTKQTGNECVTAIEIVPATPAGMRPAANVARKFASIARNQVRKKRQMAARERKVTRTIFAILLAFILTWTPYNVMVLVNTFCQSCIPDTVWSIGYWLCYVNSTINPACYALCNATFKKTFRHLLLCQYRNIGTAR

Estrogen receptor = target: T2, Estrogen receptor (Homo sapiens, UniProt P03372); assay type: functional
T2 sequence (P03372 whole entry): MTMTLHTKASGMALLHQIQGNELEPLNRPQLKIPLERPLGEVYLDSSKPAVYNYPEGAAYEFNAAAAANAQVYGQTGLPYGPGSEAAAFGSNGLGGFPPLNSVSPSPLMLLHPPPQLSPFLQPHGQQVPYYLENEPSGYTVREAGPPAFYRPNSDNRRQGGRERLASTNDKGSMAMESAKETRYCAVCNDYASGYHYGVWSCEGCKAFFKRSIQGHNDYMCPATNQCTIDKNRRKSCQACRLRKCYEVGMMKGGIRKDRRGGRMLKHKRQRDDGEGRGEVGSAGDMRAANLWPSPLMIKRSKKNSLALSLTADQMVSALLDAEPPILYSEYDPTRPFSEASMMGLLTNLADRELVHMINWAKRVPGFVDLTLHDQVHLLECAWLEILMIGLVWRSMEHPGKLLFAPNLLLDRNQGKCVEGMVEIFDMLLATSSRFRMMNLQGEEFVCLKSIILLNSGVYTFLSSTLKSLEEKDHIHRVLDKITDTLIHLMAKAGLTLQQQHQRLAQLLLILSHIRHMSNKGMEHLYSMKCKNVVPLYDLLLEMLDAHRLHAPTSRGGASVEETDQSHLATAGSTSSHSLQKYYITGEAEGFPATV

Glucocorticoid receptor = target: T3, Glucocorticoid receptor (Homo sapiens, UniProt P04150); assay type: functional
T3 sequence (P04150 whole entry): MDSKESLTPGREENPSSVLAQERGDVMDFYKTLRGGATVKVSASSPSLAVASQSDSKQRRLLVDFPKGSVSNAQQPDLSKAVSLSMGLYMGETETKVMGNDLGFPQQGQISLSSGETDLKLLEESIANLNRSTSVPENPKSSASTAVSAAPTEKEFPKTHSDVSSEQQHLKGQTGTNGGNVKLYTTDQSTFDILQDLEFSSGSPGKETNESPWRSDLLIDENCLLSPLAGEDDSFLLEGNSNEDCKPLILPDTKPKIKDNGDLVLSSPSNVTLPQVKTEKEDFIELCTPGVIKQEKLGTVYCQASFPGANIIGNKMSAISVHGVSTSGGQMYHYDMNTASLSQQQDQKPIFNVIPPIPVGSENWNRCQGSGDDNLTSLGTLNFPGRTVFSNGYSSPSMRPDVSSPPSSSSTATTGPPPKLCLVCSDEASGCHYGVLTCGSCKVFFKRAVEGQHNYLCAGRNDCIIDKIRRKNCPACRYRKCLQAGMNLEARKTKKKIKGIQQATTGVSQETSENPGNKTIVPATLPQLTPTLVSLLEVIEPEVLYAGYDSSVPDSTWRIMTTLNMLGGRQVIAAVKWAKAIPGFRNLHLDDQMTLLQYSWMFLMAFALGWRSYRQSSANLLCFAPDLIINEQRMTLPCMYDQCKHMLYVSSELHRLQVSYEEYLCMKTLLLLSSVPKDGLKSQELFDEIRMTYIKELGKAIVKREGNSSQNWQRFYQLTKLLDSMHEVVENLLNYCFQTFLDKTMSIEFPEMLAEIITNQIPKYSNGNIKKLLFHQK

[3] = target: T4, Peroxisome proliferator-activated receptor alpha (Homo sapiens, UniProt Q07869); assay type: functional
T4 sequence (Q07869 whole entry): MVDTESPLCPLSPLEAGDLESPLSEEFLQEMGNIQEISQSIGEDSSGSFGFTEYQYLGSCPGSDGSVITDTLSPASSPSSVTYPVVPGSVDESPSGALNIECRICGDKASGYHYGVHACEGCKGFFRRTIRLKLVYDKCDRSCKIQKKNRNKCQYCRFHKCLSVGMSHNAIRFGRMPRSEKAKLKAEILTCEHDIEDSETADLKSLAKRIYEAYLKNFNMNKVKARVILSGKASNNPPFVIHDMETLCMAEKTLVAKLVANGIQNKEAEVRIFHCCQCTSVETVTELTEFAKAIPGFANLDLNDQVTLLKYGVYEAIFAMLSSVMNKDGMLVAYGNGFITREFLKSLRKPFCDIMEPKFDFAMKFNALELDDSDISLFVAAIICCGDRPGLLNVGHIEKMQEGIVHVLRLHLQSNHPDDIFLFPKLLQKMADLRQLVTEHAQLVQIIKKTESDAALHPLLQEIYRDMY

[4] = target: T4, Peroxisome proliferator-activated receptor alpha; assay type: functional; remark: listed apart in the source
[5] = target: T5, Muscarinic acetylcholine receptor M2 (Homo sapiens, UniProt P08172)
T5 sequence (P08172 whole entry): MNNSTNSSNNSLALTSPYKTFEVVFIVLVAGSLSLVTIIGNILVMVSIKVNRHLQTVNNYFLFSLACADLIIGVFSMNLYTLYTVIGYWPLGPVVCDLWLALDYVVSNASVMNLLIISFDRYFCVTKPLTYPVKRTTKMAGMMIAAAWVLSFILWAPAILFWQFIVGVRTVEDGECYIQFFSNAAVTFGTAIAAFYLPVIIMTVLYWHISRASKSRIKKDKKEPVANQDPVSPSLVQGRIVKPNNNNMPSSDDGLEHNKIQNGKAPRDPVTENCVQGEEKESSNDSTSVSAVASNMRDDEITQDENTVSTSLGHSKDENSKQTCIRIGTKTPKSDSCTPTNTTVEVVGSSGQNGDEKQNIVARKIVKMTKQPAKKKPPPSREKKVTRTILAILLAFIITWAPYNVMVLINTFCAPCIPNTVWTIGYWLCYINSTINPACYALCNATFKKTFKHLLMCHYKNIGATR
Note: assay procedure not described here.

Hydroxycarboxylic acid receptor 2, sequence (Q8TDS4 whole entry): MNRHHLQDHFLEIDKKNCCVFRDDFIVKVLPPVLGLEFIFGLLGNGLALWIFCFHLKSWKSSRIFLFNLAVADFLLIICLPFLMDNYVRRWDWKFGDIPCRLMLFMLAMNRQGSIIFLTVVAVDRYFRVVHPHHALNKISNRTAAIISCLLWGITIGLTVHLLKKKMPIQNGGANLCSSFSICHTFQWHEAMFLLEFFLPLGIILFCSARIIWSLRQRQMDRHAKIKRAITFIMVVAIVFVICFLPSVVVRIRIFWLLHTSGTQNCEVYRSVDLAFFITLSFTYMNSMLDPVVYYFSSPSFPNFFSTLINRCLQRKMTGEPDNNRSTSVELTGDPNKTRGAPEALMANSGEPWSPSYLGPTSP

Cc1cnc(C(=O)O)c[n+]1[O-] [ACIPIMOX]
AC50 [1]: 3.9 µM

N=C(N)NC(=O)c1nc(Cl)c(N)nc1N [AMILORIDE]
AC50 [2]: > 10 µM

COc1cccc2c1C(=O)c1c(O)c3c(c(O)c1C2=O)C[C@@](O)(C(=O)CO)C[C@@H]3O[C@H]1C[C@H](N)[C@H](O)[C@H](C)O1 [DOXORUBICIN]
AC50 (Estrogen receptor): > 3 µM
AC50 (Glucocorticoid receptor): > 10 µM

CC(C)(Oc1ccc(Cl)cc1)C(=O)OCCOC(=O)c1cccnc1 [ETOFIBRATE]
AC50 [3]: > 30 µM
AC50 [4]: > 30 µM

CN1CCCC(CC2c3ccccc3Sc3ccccc32)C1 (configuration not stated) [METHIXENE]
AC50 [5]: 0.0053 µM
